Results from patent US5759768A, “Assays for factors affecting circularization of DNA, assays for factors affecting DNA integration, factors, and uses thereof” (priority 1995, dated 1998).
Where two headings read alike, the source gives them in different places.

Tests used:
[1] = test system: linear viral DNA (circularization); format: biochemical, HIV-1
Method: (§1) The chronically HIV-1 infected Molt IIIB human T cell line (HTLV IIIB virus strain) was the source of virus for cell-free infections. This human T cell line constitutively produces a low level of the HTLV-111B strain of HIV-1. Culture supernatant containing a high concentration of virus was prepared by incubating 300×10^6 Molt IIIB cells in 50 ml fresh RPMI 1640 medium containing 20% fetal calf serum and 10 ng of phorbol 12-myristate 13-acetate per ml for 20-24 hours. […] Cytoplasmic extracts (3 ml) were prepared 4-4.5 hours post-infection, by a modification of the procedure of Brown et al., Cell 49: 342-356 (1987).
(§2) At specified times after infection, cells were washed twice with buffer K (20 mM Hepes, pH 7.4, 150 mM KCl, 5 mM MgCl2, 1 mM dithiothreitol, […]) and then lysed at a concentration of 33×10^6 cells per ml in the same buffer containing 0.025% digitonin or 0.025% Triton X-100. Cells were extracted for 10 minutes at room temperature, and the lysate was centrifuged at 1000×g for 3 minutes, and is referred to as "cytoplasmic extract". Cytoplasmic extract was the source of viral DNA for analyses in the assays described below. The pellet from the initial low-speed centrifugation contained cell debris and intact nuclei and is called the "nuclear pellet". Cell extracts from uninfected SupT1 cells were prepared in the same manner.
Viral DNA present in cytoplasmic extracts was deproteinated by incubation with proteinase K (1 mg/ml)/10 mM EDTA/0.5% SDS for 1 hour at 55° C. Samples were extracted successively with phenol/chloroform [1:1 (vol/vol)] and chloroform. DNA was ethanol-precipitated, washed with 70% ethanol, resuspended in 10 mM Tris.HCI (pH 7.4), and treated with RNase A (20 μpg/ml)for 1 hour at […]. before analysis by agarose gel electrophoresis and Southern blotting.
(§3) DNA samples were layered on 0.8% agarose gels and electrophoresed at 1 V/cm for 15 hour in Tris/acetate/EDTA buffer. After electrophoresis, DNA was blotted by capillary action onto nitrocellulose (0.45 μm, Schleicher & Schuell).
Cell extracts were prepared from cells four to five hours after infection with HIV-1, using the above-described methods to yield fully functional viral preintegration complexes. […] In all cases, a HIV-1 LTR-containing DNA fragment was used as a hybridization probe. Therefore, only LTR-containing DNA fragments are detected. […] Lane 5: Unintegrated viral DNA prepared by Hirt extraction of SupT1 cells infected 24 hours earlier with concentrated HIV-1. […] Viral DNA was purified from extracts incubated with 1 mM ATP for 15 minutes (lanes 1 and 4), with 1 mM ATP for 45 minutes (lanes 3 and 6), or with 1 mM ATPγS for 45 minutes (lanes 2 and 5). Lanes 1-3: uncut viral DNA; lanes 4-6: viral DNA was cut with SalI prior to electrophorosis. Lane 7: linear viral DNA, prepared from untreated extracts was digested with SalI prior to electrophorosis. Lane 8: unintegrated viral DNA prepared by Hirt extraction of infected cells, as described with respect to FIG. 14, digested with SalI prior to electrophoresis. […] Lanes 1-3. Viral DNA prepared from extracts treated with 1 mM ATP for 15 minutes, 30 minutes and 45 minutes, respectively. Lane 4: Viral DNA prepared from extract treated with 1 mM ATPγS for 45 minutes. Lanes 5-7: products of reactions shown in lanes 1-3, respectively, digested with SalI and PstI prior to electrophoresis. Lane 8: SalI, PstI digestion of viral DNA prepared from extract treated with 1 mM ATP for 90 minutes. Lane 9: SalI, PstI digestion of reaction products shown in lane 4. Lane 10: SalI, PstI digestion of unintegrated viral DNA prepared by Hirt extraction of infected cells.

[2] = test system: viral DNA integrated into .phi.X174 target DNA; format: biochemical, HIV-1; details: for inhibition of integration: 90 min incubation
Method: as §1, §2, §3
In Vitro Integration Reaction
Pst I-linearized (replicative form III) .phi.X174 DNA, relaxed circular (replicative form II) .phi.X174 DNA, and single-stranded M13 DNA were used as targets for the in vitro integration of viral DNA. Target DNA was added to cytoplasmic extracts of intected SupT1 cells to a concentration of 10 μg/ml, and reaction mixtures were incubated at […]. Reactions, were stopped by the addition of SDS and proteinase K.
Cytoplasmic extracts prepared from SupT1 cells 4 hours after infection with HIV-1 were incubated with exogenously added target DNA under integration reaction conditions. Products of the reactions were analyzed by Southern blot hybridization. The time course of integration into linear .phi.X174 DNA target was determined. Target DNA was added to the extract and the reaction was stopped after 0,5,15,30, or 45 minutes of incubation at 37° C. (FIG. 11, lanes a-e, respectively). Purified linear viral DNA was incubated for 1 hour at 37° C. with cytoplasmic extract prepared from uninfected SupT1 cells (lane f). […] Arrows in the Figure indicate the positions of viral DNA products. L, linear viral DNA:I, integration product. Integration was detected by the shift of linear viral DNA on Southern blots from the characteristic 9.7-kilobase (kb) position to a position corresponding to viral DNA plus target DNA.

## O=C(O)CN(CCN(CC(=O)O)CC(=O)O)CC(=O)O [EDTA]
[1]
  detectable circle formation: abolished detectable circle formation
[2]; 1 mM EDTA, buffer devoid of added MgCl2
  detectable integration in vitro: absence of detectable integration
[2]; -Mg2+/+EDTA, target DNA 10 μg/ml
  Relative activity, % of standard: 0 % of standard

## alkaline phosphatase
[2]; pretreatment of linear target DNA
  effect on the in vitro integration reaction: no effect on the in vitro integration reaction

## CC[C@@]1(O)C(=O)OCc2c1cc1n(c2=O)Cc2cc3ccccc3nc2-1 [camptothecin]
[2]; 5 μM
  inhibition of integration: about 50%
[2]; 50 μM
  inhibition of integration: about 100%

## [Cl-].[Na+] [NcCl]
[2]
  Relative activity, % of standard: 100 % of standard

## [Cl-].[K+] [KCl]
[1]; 1 mM ATP, 37° C., 90 min
  KCl concentration of most efficient formation of 1-LTR circles: 125 mM
[1]; 100 mM KCl, 1 mM ATP, 90 min
  circular forms at KCl concentration: 1-LTR circles were formed almost exclusively
[1]; higher KCl concentrations (lane 6: 250 mM), 1 mM ATP, 90 min
  circular forms at higher salt concentrations: most entirely of the 2-LTR form
[1]; table
  1-LTR [KCl] optimum: 125 mM
  Autointegration [KCl] optimum: 150 to 175 mM
[2]; KCl 100 mM, target DNA 10 μg/ml
  Relative activity, % of standard: 85 % of standard
[2]; KCl 250 mM or greater
  detectable integration in vitro: completely abolished detectable integration
[2]; KCl 250 mM, target DNA 10 μg/ml
  Relative activity, % of standard: 0 % of standard
